Earlier results as cited in US6829374B2, “Methods for measuring iris color over time” (Glaucoma Research, Inc., priority 2001, dated 2004).

Tested on: iris color
Settings: ocular medication, recent studies

Compound | change in iris color
CC(C)OC(=O)CCC/C=C\C[C@@H]1[C@@H](CC[C@@H](O)CCc2ccccc2)[C@H](O)C[C@@H]1O [latanoprost] | change in iris color
CCCCCCCC(=O)CC[C@@H]1[C@@H](C/C=C\CCCC(=O)O)[C@@H](O)C[C@H]1O [unoprostone] | change in iris color
